The source made the active and inactive calls. No cut-off for these calls is given here.
Tests used:
[1] = biological target: T1, CviR transcriptional regulator (Chromobacterium violaceum) (UniProt D3W065); assay: Agonist activity at Chromobacterium violaceum CV026 CviR assessed as production of violacein at 20 uM preincubated at 32 degC for day 1 followed by further incubation at 25 degC on day 2 by agar plate assay
T1 sequence (whole entry): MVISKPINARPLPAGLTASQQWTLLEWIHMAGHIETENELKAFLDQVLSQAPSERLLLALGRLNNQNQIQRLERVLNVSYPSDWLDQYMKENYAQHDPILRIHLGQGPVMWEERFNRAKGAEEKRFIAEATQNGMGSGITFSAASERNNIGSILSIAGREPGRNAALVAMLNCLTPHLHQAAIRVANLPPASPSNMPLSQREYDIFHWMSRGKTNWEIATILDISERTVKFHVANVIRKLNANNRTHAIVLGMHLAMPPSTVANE

[2] = Agonist activity at Escherichia coli JM109 LasR assessed as induction of bioluminescence after 8 hrs by luminometric analysis
[3] = biological target: T1, CviR transcriptional regulator (Chromobacterium violaceum); assay: Antagonist activity at Chromobacterium violaceum CV026 CviR assessed as inhibition of C4-HSL-induced violacein production at 2 uM preincubated at 32 degC for day 1 followed by further incubation at 25 degC on day 2 by agar plate assay
[4] = Stability in 180 mM Tris-HCl buffer at pH 8 measured for 3 hrs by HPLC analysis; assay type: physicochemical; details: pH 8, 3 h
[5] = biological target: T1, CviR transcriptional regulator (Chromobacterium violaceum); assay: Antagonist activity at Chromobacterium violaceum CV026 CviR assessed as inhibition of C4-HSL-induced violacein production preincubated at 32 degC for day 1 followed by further incubation at 25 degC on day 2 by agar plate assay

SMILES	Activity [1]	EC50 [2] [nM]	inhibition [3]	Stability [4]	inhibition [5]
CCCC(=O)NN1CCOC1=O	Active				
CCCCCCCCCC(=O)CC(=O)N[C@H]1CCOC1=O		1.5	Active	Stable	
CCCCCCCCCC(=O)CC(=O)NN1CCOC1=O		2.1		Stable	Active
CCCC(=O)N[C@H]1CCOC1=O	Active				

Reference: ChEMBL document CHEMBL3739291, “3-AminooxazolidinoneAHL analogs as hydrolytically-stable quorum sensingagonists in Gram-negative bacteria” (Medchemcomm, 2015)
